# Legend:
# [1] = target: O00541_C272 (Homo sapiens, UniProt O00541); assay: Competitive isoTOP-ABPP, cell lysates; type: binding; details: 500 μm, in-vitro_ramos_231
# [2] = target: T1, ACAT1 C119 (P24752) (Homo sapiens, UniProt P24752); assay: Competitive isoTOP-ABPP, cell lysates; type: binding; details: 500 μm, in-vitro_ramos_231
# T1 sequence (P24752 34-427): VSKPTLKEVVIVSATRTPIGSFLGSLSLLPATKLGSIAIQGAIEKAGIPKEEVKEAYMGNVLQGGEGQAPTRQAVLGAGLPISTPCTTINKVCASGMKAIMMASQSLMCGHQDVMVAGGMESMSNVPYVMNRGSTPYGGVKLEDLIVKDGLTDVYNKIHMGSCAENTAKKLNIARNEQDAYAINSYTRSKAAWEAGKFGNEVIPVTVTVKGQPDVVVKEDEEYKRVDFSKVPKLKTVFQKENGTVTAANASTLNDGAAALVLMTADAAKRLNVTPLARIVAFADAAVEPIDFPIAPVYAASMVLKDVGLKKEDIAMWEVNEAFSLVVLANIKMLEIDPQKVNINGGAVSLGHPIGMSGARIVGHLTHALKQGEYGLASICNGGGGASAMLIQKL
# [3] = target: XPO1 C34 (O14980) (Homo sapiens, UniProt O14980); assay: Competitive isoTOP-ABPP, cell lysates; type: binding; details: 500 μm, in-vitro_ramos_231
# Description: (§1) TEV digests were pressure loaded onto a 250 μm (inner diameter) fused silica capillary column packed with C18 resin (Aqua 5 μm, Phenomenex). The samples were analyzed by multidimensional liquid chromatography tandem mass spectrometry (MudPIT), using an LTQ-Velos Orbitrap mass spectrometer (Thermo Scientific) coupled to an Agilent 1200-series quaternary pump. The peptides were eluted onto a biphasic column with a 5 μm tip (100 μm fused silica, packed with C18 (10 cm) and bulk strong cation exchange resin (3 cm, SCX, Phenomenex,)) in a 5-step MudPIT experiment, using 0%, 30%, 60%, 90%, and 100% salt bumps of 500 mM aqueous ammonium acetate and using a gradient of 5-100% buffer B in buffer A (buffer A: 95% water, 5% acetonitrile, 0.1% formic acid; buffer B: 5% water, 95% acetonitrile, 0.1% formic acid) as has been described in Weerapana et al. Nat Protoc 2:1414-1425 (2007). Data was collected in data-dependent acquisition mode with dynamic exclusion enabled (20 s, repeat of 2). One full MS (MS1) scan (400-1800 m/z) was followed by 30 MS2 scans (ITMS) of the nth most abundant ions.
# (§2) The ratios of heavy/light for each unique peptide (DMSO/compound treated; isoTOP-ABPP ratios, R values) were quantified with in-house CIMAGE software, using default parameters (3 ms s per peak and signal to noise threshold 2.5). Site-specific engagement of electrophilic fragments was assessed by blockade of IA-alkyne probe labeling. […] Ratios for unique peptide entries were calculated for each experiment; overlapping peptides with the same modified cysteine (e.g. different charge states, MudPIT chromatographic steps or tryptic termini) were grouped together and the median ratio was reported as the final ratio (R). The peptide ratios reported by CIMAGE were further filtered to ensure the removal or correction of low quality ratios in each individual dataset. The quality filters applied were the following: removal of half tryptic peptides; for ratios with high standard deviations from the median (90% of the median or above) the lowest ratio was taken instead of the median; removal of peptides with R=20 and only a single ms2 event triggered during the elution of the parent ion; manual annotation of all the peptides with ratios of 20, removing any peptides with low-quality elution profiles that remained after the previous curation steps. Proteome reactivity values for individual fragments were computed as the percentage of the total quantified cysteine-containing peptides with R values≥4 (defined as liganded cysteines) for each replicate experiment and the final proteome reactivity value was calculated as the mean for all replicate experiments for each fragment from both MDA-MB-231 and Ramos cellular proteomes.
# (§3) Biological replicates of the same compound and cell-line were averaged if the standard deviation was below 60% of the mean; otherwise the lowest value of the ratio set was taken.
# [4] = target: UBE2L3 C86 (P68036) (Homo sapiens, UniProt P68036); assay: Competitive isoTOP-ABPP, cell lysates; type: binding; details: 500 μm, in-vitro_ramos_231;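 also: Heavy/light ratio DMSO over fragment-treated so higher means more cysteine engagement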
# Description: as §1, §2, §3
# [5] = target: MLTK C22 (Q9NYL2) (Homo sapiens, UniProt Q9NYL2); assay: Competitive isoTOP-ABPP, cell lysates; type: binding; details: 500 μm, in-vitro_ramos_231
# Description: as §1, §2, §3
# [6] = target: GNB2L1 C182 (P63244) (Homo sapiens, UniProt P63244); assay: Competitive isoTOP-ABPP, cell lysates; type: binding; details: 500 μm, in-vitro_ramos_231;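 also: Heavy/light ratio DMSO over fragment-treated so higher means more cysteine engagement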
# Description: as §1, §2, §3
# [7] = target: T2, PDIA6 C55 (Q15084) (Homo sapiens, UniProt Q15084); assay: Competitive isoTOP-ABPP, cell lysates; type: binding; details: 500 μm, in-vitro_ramos_231
# T2 sequence (Q15084 20-440): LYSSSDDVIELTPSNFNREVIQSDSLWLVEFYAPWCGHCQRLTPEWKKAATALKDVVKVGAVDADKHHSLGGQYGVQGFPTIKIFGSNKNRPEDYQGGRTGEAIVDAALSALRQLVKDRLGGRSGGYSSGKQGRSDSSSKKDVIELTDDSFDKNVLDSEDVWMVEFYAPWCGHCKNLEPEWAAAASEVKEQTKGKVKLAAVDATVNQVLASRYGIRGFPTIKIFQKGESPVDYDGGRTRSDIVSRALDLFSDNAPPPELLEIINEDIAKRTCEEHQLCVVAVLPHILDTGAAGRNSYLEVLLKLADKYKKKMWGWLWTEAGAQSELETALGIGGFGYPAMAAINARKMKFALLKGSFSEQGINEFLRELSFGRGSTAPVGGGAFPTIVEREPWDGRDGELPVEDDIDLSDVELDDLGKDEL
# Description: as §1, §2, §3
# [8] = target: PRMT1 C109 (Q99873) (Homo sapiens, UniProt Q99873); assay: Competitive isoTOP-ABPP, cell lysates; type: binding; details: 500 μm, in-vitro_ramos_231;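 also: Heavy/light ratio DMSO over fragment-treated so higher means more cysteine engagement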
# Description: as §1, §2, §3
# [9] = target: GSTP1 C48 (P09211) (Homo sapiens, UniProt P09211); assay: Competitive isoTOP-ABPP, cell lysates; type: binding; details: 500 μm, in-vitro_ramos_231;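 also: Heavy/light ratio DMSO over fragment-treated so higher means more cysteine engagement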
# Description: as §1, §2, §3
# [10] = target: T3, ACAT1 C196 (P24752) (Homo sapiens, UniProt P24752); assay: Competitive isoTOP-ABPP, cell lysates; type: binding; details: 500 μm, in-vitro_ramos_231
# T3 sequence (P24752 34-427): T1 sequence (P24752 34-427)
# [11] = target: T4, ACAT1 C413 (P24752) (Homo sapiens, UniProt P24752); assay: Competitive isoTOP-ABPP, cell lysates; type: binding; details: 500 μm, in-vitro_ramos_231
# T4 sequence (P24752 34-427): T1 sequence (P24752 34-427)
# [12] = target: T5, ACAT1 C126 (P24752) (Homo sapiens, UniProt P24752); assay: Competitive isoTOP-ABPP, cell lysates; type: binding; details: 500 μm, in-vitro_ramos_231
# T5 sequence (P24752 34-427): T1 sequence (P24752 34-427)
# [13] = target: T6, MLTK (Homo sapiens, UniProt Q9NYL2, C22A); assay: MLTK in vitro kinase activity assay; type: biochemical; details: C22A-MLTK, 100 μM fragment
# T6 construct: expressed in transfected cells
# Description: (§4) The kinase activity assay protocol was conducted as described in Wang et al. ACS Chemical biology 9:2194-2198 (2014). Kinase assay buffers, myelin basic protein (MBP) substrate and ATP stock solution were purchased from SignalChem. Radio-labeled [γ-^33P] ATP was purchased from PerkinElmer. 250 μL of HEK-293T soluble lysates (8 mg/mL), stably overexpressing WT, C22A or K45M MLTK were labeled for 1 h with 100 μM fragment or DMSO. The samples were then individually immunoprecipitated with 20 μL flag resin slurry per sample and then eluted with 15 μL 3×Flag-peptide. To each sample was added 5 μL of MBP and then 5 μL of [γ-^33P] ATP assay cocktail (250 μM, 167 μCi/mL) was added to initiate the kinase reaction. Each reaction mixture was incubated at ambient temperature for 30 min, and the reactions were terminated by spotting 25 μL of the reaction mixture onto individual precut phosphocellulose P81 paper. The spotted P81 strips were washed with 10 mL of 1% phosphoric acid (3×10 min). MLTK activity was measured by counting the radioactivity on the P81 paper in the presence of scintillation fluid in a scintillation counter. […] Relative activities for WT and C22A were normalized to their respective DMSO treated samples. Experiments were performed in triplicate.
# [14] = target: T7, MLTK (Homo sapiens, UniProt Q9NYL2); assay: MLTK in vitro kinase activity assay; type: biochemical; details: WT-MLTK, 100 μM fragment
# T7 construct: expressed in transfected cells
# Description: as §4
# [15] = target: T8, MLTK (ZAK) C22 (Homo sapiens, UniProt Q9NYL2); assay: Blockade of ibrutinib-derived probe 59 labeling of MLTK (gel-based ABPP); type: binding; details: read-out: IC50 for blockade of ibrutinib probe 59 labeling of MLTK; recombinant MLTK in HEK293T lysate
# T8 construct: expressed in transfected cells
# Description: CuAAC was performed with 20 μM rhodamine-azide (50× stock in DMSO), 1 mM tris(2-carboxyethyl)phosphine hydrochloride (TCEP; fresh 50× stock in water, final concentration=1 mM), ligand (17× stock in DMSO:t-butanol 1:4, final concentration=100 μM) and 1 mM CuSO4 (50× stock in water, final concentration=1 mM). […] Quenched reactions were analyzed by SDS-PAGE and visualized by in-gel fluorescence. […] For MLTK, HEK 293T cells stably overexpressing MTLK^2 were treated with the indicated fragment electrophiles for 1 h, followed by labeling with 59 (1 μl, of 125 μM, final concentration=5 μM) for 1 h. These were followed by CuAAC conjugation to rhodamine-azide and evaluation by SDS-PAGE as described above.
"isoTOP-ABPP reactivity profile ratio, O00541_C272 [1]","isoTOP-ABPP reactivity profile ratio, P24752_C119 [2]","isoTOP-ABPP reactivity profile ratio, O14980_C34 [3]","isoTOP-ABPP reactivity profile ratio, P68036_C86 [4]","isoTOP-ABPP reactivity profile ratio, Q9NYL2_C22 [5]","isoTOP-ABPP reactivity profile ratio, P63244_C182 [6]","isoTOP-ABPP reactivity profile ratio, Q15084_C55 [7]","isoTOP-ABPP reactivity profile ratio, Q99873_C109 [8]","isoTOP-ABPP reactivity profile ratio, P09211_C48 [9]","isoTOP-ABPP reactivity profile ratio, P24752_C196 [10]","isoTOP-ABPP reactivity profile ratio, P24752_C413 [11]","isoTOP-ABPP reactivity profile ratio, P24752_C126 [12]",inhibitory effect on C22A-MLTK mutant [13],catalytic activity of MLTK (substrate phosphorylation) [14],IC50 [15] [nM],SMILES
1.0,0.9,0.9,1.0,1.2,1.0,0.9,1.0,1.4,1.0,1.0,0.9,,,,CCCN(C(=O)CCl)c1c(N)n(CCC)c(=O)[nH]c1=O [compound 55]
,,,,,,,,,,,,not observed,blocked the catalytic activity,2600,O=C(CCl)N1N=C(c2ccco2)CC1c1cc2ccccc2o1 (stereo not drawn) [compound 60]
